Our source for the activity and viability values is PMC12040169 (PLOS Biology, 2025).

For data set [1], the system named is T1, CTL2-GFP (C. trachomatis L2/434/Bu, GFP-expressing).
T1 construct: L2/434/Bu, GFP-expressing
Put plainly: microbe, parasite or virus in culture. Also on record: Intracellular C. trachomatis growth in HeLa cells, bulk GFP fluorescence relative to DMSO. Particulars: Chlamydia trachomatis, HeLa, 28.5 h; bulk GFP, mean of 2; read-out: % of control remaining. The procedure:
MICs were calculated as described above.

Data set [2] deals with T2, C. trachomatis L2/434/Bu expressing GFP (CTL2-GFP).
T2 construct: L2/434/Bu GFP intracellular growth in HeLa cells
Put plainly: microbe, parasite or virus in culture. Also noted: C. trachomatis total inclusion area by high-content imaging, normalised to DMSO. The note with it: Chlamydia trachomatis, HeLa, 28.5 h; total inclusion area; read-out: % of control remaining. In a few lines:
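Infected cells treated with library compounds were read for bulk GFP (chlamydial growth) and resorufin fluorescence (host viability), then fixed, Hoechst-stained and imaged. Inclusion area and number from GFP, plus nuclei counts, served as additional growth and viability proxies; MICs derived as previously described.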

The nature of data set [3]: in vitro. Also noted: Viability of infected HeLa host cells, resazurin conversion, bulk resorufin fluorescence relative to DMSO. Particulars: human, hela cells; bulk resorufin, mean of 2.

In general, viability refers to a read-out of living cells in per cent, often relative to untreated cells. As to `O=C(Nc1ccc(F)cc1)c1[nH]c2ccccc2c1NS(=O)(=O)c1cc(Cl)sc1Cl` [CBK050094], in data set [1], the activity at 1 µM came out at 151%, the activity at 5 µM came out at 124% and the activity at 10 µM stood at 118%. In data set [2], the activity at 1 µM turned out to be 126%, the activity at 5 µM was 99.9% and the activity at 10 µM is 62.7%. In data set [3], the viability at 28.5 h, 1 µM came out at 90%; the viability at 28.5 h, 5 µM stood at 96.8%; the viability at 28.5 h, 10 µM was found to be 86.9%.
For the molecule `COc1ccc([C@@]23CC=C(N(Cc4ccccc4)C(=O)Nc4ccc(F)c(F)c4)C[C@@H]2N(C)CC3)cc1OC` [CBK050179], in data set [1], the activity at 1 µM turned out to be 105%, the activity at 5 µM was 86.7% and the activity at 10 µM amounted to 69.8%. In addition, in data set [2], the activity at 1 µM is 62.1%, the activity at 5 µM came out at 80.2% and the activity at 10 µM turned out to be 52.4%. In addition, in data set [3], the viability at 28.5 h, 1 µM is 93.3%; the viability at 28.5 h, 5 µM was determined as 95%; the viability at 28.5 h, 10 µM stood at 112%.
For `O=S(=O)(Nc1ccc(C(F)(F)F)cc1Cl)c1cc(Br)c(Cl)s1` [CBK057196], in data set [1], the activity at 1 µM amounted to 142%, the activity at 5 µM turned out to be 108% and the activity at 10 µM stood at 69.6%. In data set [2], the activity at 1 µM was 114%, the activity at 5 µM was found to be 75.1% and the activity at 10 µM stood at 57.9%. For the same molecule, in data set [3], the viability at 28.5 h, 1 µM turned out to be 90.4%; the viability at 28.5 h, 5 µM was found to be 93.1%; the viability at 28.5 h, 10 µM is 88.2%.
Turning to `Cc1cc(C)c2c(N)c(C(=O)Nc3ccc(Br)cc3)sc2n1` [CBK072019], in data set [1], the activity at 1 µM was 107%, the activity at 5 µM turned out to be 95.1% and the activity at 10 µM came out at 100%. Further, in data set [2], the activity at 1 µM came to 98.4%, the activity at 5 µM stood at 59.7% and the activity at 10 µM came out at 91%. Also, in data set [3], the viability at 28.5 h, 1 µM was found to be 97.9%; the viability at 28.5 h, 5 µM came to 98.9%; the viability at 28.5 h, 10 µM turned out to be 106%.
For `COc1cccc(CNc2ccc(N3CCOCC3)cc2)c1OCc1ccccc1F` [CBK074406], in data set [1], the activity at 1 µM worked out at 135%, the activity at 5 µM amounted to 97.1% and the activity at 10 µM was found to be 65.4%. Also, in data set [2], the activity at 1 µM came out at 130%, the activity at 5 µM is 63.6% and the activity at 10 µM was 41.5%. Also, in data set [3], the viability at 28.5 h, 1 µM was determined as 86.4%; the viability at 28.5 h, 5 µM came out at 83.8%; the viability at 28.5 h, 10 µM came out at 90.9%.
Turning to `COc1ccc([C@@]23CC[C@@H](NC(=O)c4ccc(-c5ccccc5)cc4)CC2N(C)CC3)cc1OC` (stereo partly drawn) [CBK074973T], in data set [1], the activity at 1 µM was found to be 113%, the activity at 5 µM was found to be 78.4% and the activity at 10 µM turned out to be 39.7%. Also, in data set [2], the activity at 1 µM stood at 118%, the activity at 5 µM amounted to 93.3% and the activity at 10 µM is 31.1%. For the same molecule, in data set [3], the viability at 28.5 h, 1 µM amounted to 93.9%; the viability at 28.5 h, 5 µM was determined as 94.3%; the viability at 28.5 h, 10 µM came out at 87.1%.
Regarding `CC(C)(C)c1cc(C(=O)Nc2ccncc2)n(Cc2ccc(Cl)cc2Cl)n1` [CBK107284], in data set [1], the activity at 1 µM is 116%, the activity at 5 µM amounted to 74.6% and the activity at 10 µM turned out to be 24.2%. Moreover, in data set [2], the activity at 1 µM came to 117%, the activity at 5 µM came to 57.8% and the activity at 10 µM came out at 39.7%. Moreover, in data set [3], the viability at 28.5 h, 1 µM is 94.9%; the viability at 28.5 h, 5 µM turned out to be 94%; the viability at 28.5 h, 10 µM came out at 97.3%.
Regarding `O=[N+]([O-])c1cc([N+](=O)[O-])c2cccnc2c1NNc1nncc2ccccc12` [CBK110409], in data set [1], the activity at 1 µM was found to be 107%, the activity at 5 µM was 69% and the activity at 10 µM was 22.1%. Moreover, in data set [2], the activity at 1 µM amounted to 108%, the activity at 5 µM is 63.9% and the activity at 10 µM worked out at 31%. In data set [3], the viability at 28.5 h, 1 µM was determined as 93%; the viability at 28.5 h, 5 µM was 89.1%; the viability at 28.5 h, 10 µM stood at 86.6%.
With `Cc1ccc(C(=O)NCCCN2CCC3(CC2)OCCc2c3[nH]c3ccccc23)cc1` [CBK113485], in data set [1], the activity at 1 µM was 114%, the activity at 5 µM was determined as 80% and the activity at 10 µM came to 21.4%. In addition, in data set [2], the activity at 1 µM worked out at 88.7%, the activity at 5 µM was found to be 33.7% and the activity at 10 µM amounted to 5.52%. In data set [3], the viability at 28.5 h, 1 µM was determined as 86.4%; the viability at 28.5 h, 5 µM was 88%; the viability at 28.5 h, 10 µM is 78.1%.
Take `CN(C)CCCNC(=O)Nc1cccc(-c2nc(-c3ccc(C#N)cc3)cnc2N)c1` [CBK116287]: in data set [1], the activity at 1 µM was determined as 102%, the activity at 5 µM was found to be 71.8% and the activity at 10 µM turned out to be 14.2%. Further, in data set [2], the activity at 1 µM came out at 116%, the activity at 5 µM came out at 66.5% and the activity at 10 µM amounted to 4.68%. Further, in data set [3], the viability at 28.5 h, 1 µM was determined as 104%; the viability at 28.5 h, 5 µM worked out at 89.1%; the viability at 28.5 h, 10 µM came to 97.5%.
Turning to `COC(=O)CCc1ccc(-c2cnc(N)c(-c3ccc(O)cc3)n2)cc1` [CBK122809], in data set [1], the activity at 1 µM was 122%, the activity at 5 µM came out at 108% and the activity at 10 µM amounted to 93.5%. For the same molecule, in data set [2], the activity at 1 µM was determined as 92.1%, the activity at 5 µM came out at 83.5% and the activity at 10 µM is 80.2%. For the same molecule, in data set [3], the viability at 28.5 h, 1 µM was determined as 114%; the viability at 28.5 h, 5 µM worked out at 118%; the viability at 28.5 h, 10 µM came out at 113%.
Regarding `CCNC(=O)N1CC2(CCN(Cc3nc4ccccc4[nH]3)CC2)c2ccccc21` [CBK126693], in data set [1], the activity at 1 µM is 115%, the activity at 5 µM amounted to 120% and the activity at 10 µM was 109%. In data set [2], the activity at 1 µM was 74.5%, the activity at 5 µM is 89.8% and the activity at 10 µM was found to be 65%. In addition, in data set [3], the viability at 28.5 h, 1 µM was 100%; the viability at 28.5 h, 5 µM turned out to be 94.1%; the viability at 28.5 h, 10 µM was found to be 96.7%.
For `Cn1c(=O)c2c(ncn2Cc2ccccc2)n(C)c1=O` [CBK133402], in data set [1], the activity at 1 µM is 119%, the activity at 5 µM turned out to be 115% and the activity at 10 µM worked out at 111%. For the same molecule, in data set [2], the activity at 1 µM stood at 100%, the activity at 5 µM was determined as 51.9% and the activity at 10 µM came out at 66.7%. For the same molecule, in data set [3], the viability at 28.5 h, 1 µM worked out at 111%; the viability at 28.5 h, 5 µM was 110%; the viability at 28.5 h, 10 µM was 109%.
For the molecule `CC(=O)Nc1ccc(-c2cccc(COC3CCN(C(=O)c4ccc(OC(C)C)cc4)CC3)c2)cc1` [CBK149485], in data set [1], the activity at 1 µM came out at 107%, the activity at 5 µM turned out to be 30.6% and the activity at 10 µM was 6.64%. In data set [2], the activity at 1 µM was determined as 97.4%, the activity at 5 µM is 32.5% and the activity at 10 µM amounted to 7.93%. Besides, in data set [3], the viability at 28.5 h, 1 µM was 89.4%; the viability at 28.5 h, 5 µM was determined as 92.4%; the viability at 28.5 h, 10 µM worked out at 93.9%.
Take `O=C(NCCc1c[nH]c2ccc(Cl)cc12)c1ccc(Cl)cc1Br` [CBK159755]: in data set [1], the activity at 1 µM was determined as 100%, the activity at 5 µM amounted to 71.3% and the activity at 10 µM is 19.1%. For the same molecule, in data set [2], the activity at 1 µM was found to be 91%, the activity at 5 µM amounted to 79.9% and the activity at 10 µM stood at 32.4%. For the same molecule, in data set [3], the viability at 28.5 h, 1 µM was 89%; the viability at 28.5 h, 5 µM is 88.9%; the viability at 28.5 h, 10 µM was 93.1%.
`Cc1cc(Br)ccc1C(=O)NCCc1c[nH]c2ccc(Cl)cc12` [CBK159771]: in data set [1], the activity at 1 µM came to 95.1%, the activity at 5 µM is 57.5% and the activity at 10 µM came to 22.3%. In addition, in data set [2], the activity at 1 µM was 116%, the activity at 5 µM amounted to 67.5% and the activity at 10 µM turned out to be 47.4%. Besides, in data set [3], the viability at 28.5 h, 1 µM amounted to 109%; the viability at 28.5 h, 5 µM stood at 106%; the viability at 28.5 h, 10 µM was found to be 108%.
As for `CC(C)c1ccc(/C=C/C(=O)NCc2ccc(NS(C)(=O)=O)cc2)cc1` [CBK161512], in data set [1], the activity at 1 µM was 138%, the activity at 5 µM is 96.2% and the activity at 10 µM came to 43.8%. For the same molecule, in data set [2], the activity at 1 µM was determined as 74.8%, the activity at 5 µM is 59.3% and the activity at 10 µM worked out at 20.9%. For the same molecule, in data set [3], the viability at 28.5 h, 1 µM was 101%; the viability at 28.5 h, 5 µM came out at 104%; the viability at 28.5 h, 10 µM came to 94.9%.
With `CC(C)(C)c1ccc(N(C2CCNCC2)S(=O)(=O)c2cccc(C(F)(F)F)c2)cc1` [CBK165056T], in data set [1], the activity at 1 µM was found to be 103%, the activity at 5 µM was found to be 77.9% and the activity at 10 µM was 24.3%. In addition, in data set [2], the activity at 1 µM is 78%, the activity at 5 µM is 50.5% and the activity at 10 µM was determined as 1%. Also, in data set [3], the viability at 28.5 h, 1 µM is 99.8%; the viability at 28.5 h, 5 µM was determined as 107%; the viability at 28.5 h, 10 µM stood at 45.6%.
For `O=C(OCCC1SC(NC2CC3C=CC2C3)=NC1=O)c1ccc(Cl)c([N+](=O)[O-])c1` (stereo not drawn) [CBK200060T], in data set [1], the activity at 1 µM turned out to be 140%, the activity at 5 µM stood at 129% and the activity at 10 µM was determined as 103%. Moreover, in data set [2], the activity at 1 µM was found to be 132%, the activity at 5 µM stood at 108% and the activity at 10 µM was determined as 68.7%. Moreover, in data set [3], the viability at 28.5 h, 1 µM was 92.3%; the viability at 28.5 h, 5 µM was 96.8%; the viability at 28.5 h, 10 µM was determined as 88.4%.
